# Measurements: patent US5382670A, “Platelet activating factor antagonists” (priority 1993, dated 1995)
# Structures can show the parent of a compound that is named as a salt.
# Target: PAF receptor (Oryctolagus cuniculus, UniProt G1TEI7)
# Assay: PAF receptor binding assay: inhibition of specific [3H]C18-PAF binding to rabbit platelet membranes
# Settings: 0.6 nM [3H]C18-PAF, 60 min, 22-23 °C, Ki from IC50 (Cheng and Prusoff), read-out: Ki (PAF Receptor Binding Activity)
# Method: The ability of representative compounds of the present invention to inhibit PAF activity was determined in an in vitro test using the following method.
# Citrated whole rabbit blood was obtained from Pel-Freez (Rogers, AR). Rabbit platelets were prepared by centrifugation and washing. The platelets were lysed by freeze-thawing and sonication; platelet membranes were prepared by centrifugation and washing. Final membrane preparations were stored frozen in 10 mM Tris/5 mM MgCl2 /2 mM EDTA (TME buffer, pH 7.0) with 0.25M sucrose added for membrane stabilization.
# The standard PAF receptor binding assay contained 10 μg platelet membrane protein, 0.6 nM [^3 H]C18 -PAF (from Amersham or New England Nuclear; specific activity 120-180 Ci/mmol), with and without test compound, in "binding buffer" consisting of TME with 0.25% bovine serum albumin added (Sigma, RIA grade). The final volume of the assay was 100 μl. The assay was conducted in Millititre-GV™ (Millipore Corp.) filtration plates; incubation time was for 60 minutes at room temperature (22°-23° C.). "Specific binding" was operationally defined as the arithmetic difference between "total binding" of 0.6 nM [^3 H]C18 -PAF (in the abasence of added PAF) and "nonspecific binding" (in the presence of 1 μM PAF). After the prescribed incubation, platelet membranes were filtered under vacuum, and washed with 1 milliliter of "binding buffer". The filters were dried and removed. The bound radioactivity was quantitated with a Berthold TLC-Linear Analyzer model LB2842.
# Dose-response curves of inhibition of specific [^3 H]C18 -PAF binding by test compounds were conducted in triplicate, with at least four doses covering the active range. Experiments were repeated at least once. IC50 values (concentration producing 50% inhibition) were determined by point-to-point evaluation. Ki values of inhibitory binding constants were calculated according to the method of Cheng and Prusoff [Biochem. Pharmacol. 22 (1973) 3099-3108] whereby [formula]
# The values of Ki for representative compounds of the present invention appear in Table 1.
# Sequence of PAF receptor (G1TEI7 1-342): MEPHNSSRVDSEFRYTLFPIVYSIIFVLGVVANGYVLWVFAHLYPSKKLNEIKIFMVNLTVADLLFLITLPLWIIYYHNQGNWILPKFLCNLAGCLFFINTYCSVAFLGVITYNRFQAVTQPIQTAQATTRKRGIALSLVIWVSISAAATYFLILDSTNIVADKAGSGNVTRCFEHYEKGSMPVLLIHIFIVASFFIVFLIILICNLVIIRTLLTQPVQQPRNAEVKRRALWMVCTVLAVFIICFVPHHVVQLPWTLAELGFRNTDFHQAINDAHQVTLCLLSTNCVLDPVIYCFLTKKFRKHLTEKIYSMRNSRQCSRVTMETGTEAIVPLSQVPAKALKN
row,Ki [nM],SMILES
1,1400,"CN(C)C(=O)n1cc(C(=O)C2CSC(c3cccnc3)N2C(N)=O)c2ccccc21 (centres unmarked) [Example 110, 1-dimethylcarbamoyl-3-[2-(3-pyridinyl)-3-carbamoylthiazolid-4-oyl]indole]"
2,650,"CN(C)C(=O)n1cc(C(=O)[C@@H]2CS[C@H](c3cccnc3)N2C(=O)C(F)(F)F)c2ccccc21 (relative stereo) [Example 104, cis-1-dimethylcarbamoyl-3-[2-(3-pyridinyl)-3-trifluoroacetylthiazolid-4-oyl]indole]"
3,360,"O=C(C1CSC(c2cccnc2)S1)n1ccc2ccccc21 (centres unmarked) [Example 26, 1-[2-(3-pyridinyl)dithiolan-4-oyl]indole oxalate]"
4,93,"O=C(c1ccccc1)c1ccc2ccn(C(=O)C3CSC(c4cccnc4)N3)c2c1 (centres unmarked) [Example 17, 1-[2-(3-pyridinyl)thiazolid-4-oyl]-6-benzoylindole]"
5,2,"CN(C)C(=O)n1cc(C(=O)C2CSC(c3cccnc3)N2)c2ccc(OCc3ccccc3)cc21 (centres unmarked) [Example 123, 1-dimethylcarbamoyl-3-[2-(3-pyridinyl)thiazolid-4-oyl]-6-phenylmethoxyindole oxalate]"
6,5200,"CC(=O)N1C(C(=O)c2cn(C(=O)N(C)C)c3ccccc23)CSC1c1cccnc1 (centres unmarked) [Example 100, 1-dimethylcarbamoyl-3-[2-(3-pyridinyl)-3-acetylthiazolid-4-oyl]indole]"
7,18,"CCS(=O)(=O)n1cc(C(=O)C2CSC(c3cccnc3)N2)c2ccccc21 (centres unmarked) [Example 62, 1-ethylsulfonyl-3-[2-(3-pyridinyl)thiazolid-4-oyl]indole]"
8,15,"O=C(C1CSC(c2cccnc2)N1)n1ccc2cc(OCc3ccccc3)ccc21 (centres unmarked) [Example 11, 1-(2-(3-pyridinyl)thiazolid-4-oyl)-5-phenylmethoxyindole dihydrochloride]"
9,4,"COc1cc(C(=O)c2cccc3c2ccn3C(=O)C2CSC(c3cccnc3)N2)cc(OC)c1OC (centres unmarked) [Example 8, 1-[2-(3-pyridinyl)thiazolid-4-oyl]-4-(3,4,5-trimethoxybenzoyl)indole]"
10,36,"Cc1ccc2c(c1)c(C(=O)C1CSC(c3cccnc3)N1)c(C)n2C(=O)N1CCOCC1 (centres unmarked) [Example 68, 1-(4-morpholinocarbonyl)-2,5-dimethyl-3-[2-(3-pyridinyl)thiazolid-4-oyl]indole]"
11,1,"CCN(CC)C(=O)n1cc(C(=O)C2CSC(c3cccnc3)N2)c2ccccc21 (centres unmarked) [Example 48, 1-diethylcarbamoyl-3-[2-(3-pyridinyl)thiazolid-4-oyl]indole]"
12,3300,"CN(C)C(=O)n1cc(C(=O)C2C[S+]([O-])C(c3cccnc3)N2C=O)c2ccccc21 (centres unmarked) [Example 95, 1-dimethylcarbamoyl-3-[1-oxide,2-(3,pyridinyl)-3-formylthiazolid-4-oyl]indole]"
13,8,"CCS(=O)(=O)n1cc(C(=O)C2CSC(c3cccnc3)N2)c2ccc(OCc3ccccc3)cc21 (centres unmarked) [Example 73, 1-ethylsulfonyl-3-[2-(3-pyridinyl)thiazolid-4-oyl]-6-phenylmethoxyindole]"
14,2,CN(C)C(=O)n1cc(C(=O)C2CSC(c3cccnc3)N2)c2ccc(C#Cc3ccccc3)cc21 (centres unmarked) [Example 78]
15,16,"Cc1[nH]c2cc(OCc3ccccc3)ccc2c1C(=O)C1CSC(c2cccnc2)N1 (centres unmarked) [Example 79, 2-methyl-3-[2-(3-pyridinyl)thiazolid-4-oyl]-6-phenylmethoxyindole]"
16,175,"CN(C)C(=O)n1cc(C(=O)[C@@H]2CS[C@H](c3cccnc3)N2C(=O)C(F)(F)F)c2ccccc21 (relative stereo) [Example 105, cis-1-dimethylcarbamoyl-3-[2-(3-pyridinyl)-3-trifluoroacetylthiazolid-4-oyl]indole oxalate]"
17,4,"COc1ccc2c(C(=O)C3CSC(c4cccnc4)N3)cn(C(=O)N(C)C)c2c1 (centres unmarked) [Example 85, 1-dimethylcarbamoyl-3-[2-(3-pyridinyl)thiazolid-4-oyl]-6-methoxyindole]"
18,75,"CN(C)C(=O)n1cc(C(=O)[C@@H]2CS[C@@H](c3cccnc3)N2C(=O)C(F)(F)F)c2ccccc21 (relative stereo) [Example 107, trans-1-dimethylcarbamoyl 1-34 2-(3-pyridinyl)-3-trifluoroacetylthiazolid-4-oyl]indole oxalate]"
19,70,"CN(C)C(=O)n1cc(C(=O)C2CSC(c3cccnc3)N2C(=O)C(F)(F)F)c2ccc(OCc3ccccc3)cc21 (single isomer, unassigned; isomer 2) [Example 109, 1-dimethylcarbamoyl-3-[2-[3-pyridinyl)-3-trifluoroacetylthiazolid-4-oyl]-6-phenylmethoxyindole, isomer 2]"
20,4800,"CN(C)C(=O)n1cc(C(=O)C2CSC(c3cccnc3)N2S(C)(=O)=O)c2ccccc21 (centres unmarked) [Example 112, 1-dimethylcarbamoyl-3-[2-(3-pyridinyl)-3-methylsulfonylthiazolid-4-oyl]indole]"
21,1700,"O=C(c1c[nH]c2ccccc12)C1CSC(c2cccnc2)S1 (centres unmarked) [Example 31, 3-2-(3-pyridinyl)dithiolan-4-oyl]indole oxalate]"
22,1000,"O=C(c1cn(S(=O)(=O)c2ccccc2)c2ccccc12)C1CSC(c2cccnc2)S1 (centres unmarked) [Example 32, 1-phenylsulfonyl 3-[2-(3-pyridinyl)dithiolan-4-oyl]indole oxalate]"
23,23,"O=C(c1c[nH]c2ccc(OCc3ccccc3)cc12)C1CSC(c2cccnc2)N1 (centres unmarked) [Example 23, 3-(2-(3-pyridinyl)thiazolid-4-oyl])-5-phenylmethoxyindole oxalate]"

row,SMILES,Ki [nM]
1,"CC(C)(C)OC(=O)n1cc(C(=O)[C@@H]2CS[C@@H](c3cccnc3)S2)c2ccccc21 (relative stereo) [Example 30, trans 1-tert-butoxycarbonyl-3-[2-(3-pyridinyl)dithiolan-4-oyl]indole oxalate]",900
2,CC(C)(C)NC(=O)n1cc(C(=O)C2CSC(c3cccnc3)N2)c2ccccc21 (centres unmarked) [Example 54],9
3,"CC(C)(C)OC(=O)n1cc(C(=O)C2CSC(c3cccnc3)N2)c2ccccc21 (centres unmarked) [Example 28, 1-tert-butoxycarbonyl-3-[2-(3-pyridinyl)thiazolid-4-oyl]indole oxalate]",2
4,"Cc1ccc2c(c1)c(C(=O)C1CSC(c3cccnc3)N1)c(C)n2C(=O)OC(C)(C)C (centres unmarked) [Example 67, 1-tert-butoxycarbonyl-2,5-dimethyl-3-[2-[3-pyridinyl)thiazolid-4-oyl]indole oxalate]",39
5,"COc1ccc2c(C(=O)C3CSC(c4cccnc4)N3)cn(C(=O)OC(C)(C)C)c2c1 (centres unmarked) [Example 84, 1-tert-butoxycarbonyl-3-[2-(3-pyridinyl)thiazolid-4-oyl]-6-methoxyindole oxalate]",9

# Same assay, conditions: Ki (PAF Receptor Binding Activity), 0.6 nM [3H]C18-PAF, 60 min, 22-23 °C, Ki from IC50 (Cheng and Prusoff)
row,SMILES,Ki [nM]
1,"O=C(C1CSC(c2cccnc2)N1)n1ccc2cccnc21 (centres unmarked) [Example 19, 1-[2-(3-pyridinyl)thiazolid-4-oyl]-7-azaindole]",12500
2,"COc1ccc2c(C(=O)C3CSC(c4cccnc4)N3)c[nH]c2c1 (centres unmarked) [Example 83, 3-[2-(3-pyridinyl)thiazolid-4-oyl]-6-methoxyindole oxalate]",16
3,"N#Cc1ccc2c(ccn2C(=O)C2CSC(c3cccnc3)N2)c1 (centres unmarked) [Example 10, 1-[2-(3-pyridinyl)thiazolid-4-oyl]-5-cyanoindole dihydrochloride]",2100
4,"O=C(O)CCn1cc(C(=O)C2CSC(c3cccnc3)N2)c2ccccc21 (centres unmarked) [Example 119, 1-carboxyethyl-3-[2-(3-pyridinyl)thiazolid-4-oyl]indole]",20
5,"O=C(C1CSC(c2cccnc2)N1)n1ccc2ccc(Br)cc21 (centres unmarked) [Example 16, 1-[2-(3-pyridinyl)thiazolid-4-oyl]-6-bromoindole]",25
6,"O=C(C1CSC(c2cccnc2)N1)n1ccc2cc(Cl)ccc21 (centres unmarked) [Example 9, 1-[2-(3-pyridinyl)thiazolid-4-oyl]-5-chloroindole dihydrochloride]",140
7,"CNC(=O)Cn1cc(C(=O)C2CSC(c3cccnc3)N2)c2ccccc21 (centres unmarked) [Example 117, 1-(N-methylcarbamoylmethyl)-3-[2-(3-pyridinyl)thiazolid-4-oyl]indole]",3
8,"Cc1ccc2c(C(=O)C3CSC(c4cccnc4)N3)c[nH]c2c1 (centres unmarked) [Example 80, 3-[2-(3-pyridinyl)thiazolid-4-oyl]-6-methylindole]",3
9,"O=C(C1CSC(c2cccnc2)N1)n1ccc2c(Br)cccc21 (centres unmarked) [Example 6, 1-[2-(3-pyridinyl)thiazolid-4-oyl]-4-bromoindole dihydrochloride]",53
10,"O=C(c1c[nH]c2cc(O)ccc12)C1CSC(c2cccnc2)N1 (centres unmarked) [Example 88, 3-[2-(3-pyridinyl)thiazolid-4-oyl]-6-hydroxyindole]",150
